Assays:
[1] = Morpholine Test (depression of the partial vapour pressure of morpholine, Raoult variance ratio); assay type: physicochemical; conditions: morpholine (0.25 g) and material (1 g), 37°C, headspace GC
Description: In this test the capacity of a material to depress the partial vapour pressure of morpholine more than that required by Raoult's Law is measured. Substances that undergo chemical reaction with morpholine, for example aldehydes, are to be regarded as excluded from the test.
Into a sample bottle of capacity 20 ml is introduced morpholine ([…]), the bottle fitted with a serum cap and then maintained at 37°C for 30 minutes for equilibrium to be reached. The gas in the headspace of the bottle is analysed by piercing the serum cap with a capillary needle through which nitrogen at 37°C is passed to increase the pressure in the bottle by a standard amount and then allowing the excess pressure to inject a sample from the headspace into gas chromatograph apparatus, which analyses it and provides a chromatographic trace curve with a peak due to morpholine, the area under which is proportional to the amount of morpholine in the sample.
The procedure is repeated under exactly the same conditions using instead of morpholine alone, morpholine (0.25 g) and the material to be tested (1 g); and also using the material (1 g) without the morpholine to check whether it gives an interference with the morpholine peak (which is unusual).
The procedure is repeated until reproducible results are obtained. The areas under the morpholine peaks are measured and any necessary correction due to interference by the material is made.
A suitable apparatus for carrying out the above procedure is a Perkin-Elmer Automatic GC Multifract F40 for Head Space Analysis. Further details of this method are described by Kolb in "CZ-Chemie-Technik", Vol 1, No 2, 87-91 (1972) and by Jentzsch et al in "Z. Anal. Chem." 236, 96-118 (1968).
The measured areas representing the morpholine concentration are proportional to the partial vapour pressure of the morpholine in the bottle headspace. If A is the area under the morpholine peak when only morpholine is tested and A' is the area due to morpholine when a material is present, the relative lowering of partial vapour pressure of morpholine by the material is given by 1-A'/A.
According to Raoult's Law, if at a given temperature the partial vapour pressure or morpholine in equilibrium with air above liquid morpholine is p, the partial vapour pressure p' exerted by morpholine in a homogeneous liquid mixture of morpholine and material at the same temperature is pM/(M+PC), where M and PC are the molar concentrations of morpholine and material.
The extend to which the behaviour of the mixture departs from Raoult's Law is given by the ratio (1-A'/A)/(87/(87+m/4)) [formula]
The above ratio, which will be referred to as the Raoult variance ratio, is calculated from the test results. Where a material is a mixture of compounds, a calculated or experimentally determined average molecular weight is used for m. A material that depresses the partial vapour pressure of morpholine by at least 10% more than that required by Raoult's Law in the Morpholine Test is one in which the Raoult variance ratio is at least 1.1.

lipoxidase (EC1.13.1.13) = molecular target: T1, lipoxidase (EC1.13.1.13) (Glycine max, UniProt P08170); test: Lipoxidase Inhibition Test (inhibition of the oxidation of linoleic acid by lipoxidase); assay type: biochemical; conditions: Lipoxidase Inhibiting Capacity; 0.5% by weight solution in ethanol of the material in test substrate solution; borate buffer pH 9.0; 234 nm
T1 sequence (P08170 1-839): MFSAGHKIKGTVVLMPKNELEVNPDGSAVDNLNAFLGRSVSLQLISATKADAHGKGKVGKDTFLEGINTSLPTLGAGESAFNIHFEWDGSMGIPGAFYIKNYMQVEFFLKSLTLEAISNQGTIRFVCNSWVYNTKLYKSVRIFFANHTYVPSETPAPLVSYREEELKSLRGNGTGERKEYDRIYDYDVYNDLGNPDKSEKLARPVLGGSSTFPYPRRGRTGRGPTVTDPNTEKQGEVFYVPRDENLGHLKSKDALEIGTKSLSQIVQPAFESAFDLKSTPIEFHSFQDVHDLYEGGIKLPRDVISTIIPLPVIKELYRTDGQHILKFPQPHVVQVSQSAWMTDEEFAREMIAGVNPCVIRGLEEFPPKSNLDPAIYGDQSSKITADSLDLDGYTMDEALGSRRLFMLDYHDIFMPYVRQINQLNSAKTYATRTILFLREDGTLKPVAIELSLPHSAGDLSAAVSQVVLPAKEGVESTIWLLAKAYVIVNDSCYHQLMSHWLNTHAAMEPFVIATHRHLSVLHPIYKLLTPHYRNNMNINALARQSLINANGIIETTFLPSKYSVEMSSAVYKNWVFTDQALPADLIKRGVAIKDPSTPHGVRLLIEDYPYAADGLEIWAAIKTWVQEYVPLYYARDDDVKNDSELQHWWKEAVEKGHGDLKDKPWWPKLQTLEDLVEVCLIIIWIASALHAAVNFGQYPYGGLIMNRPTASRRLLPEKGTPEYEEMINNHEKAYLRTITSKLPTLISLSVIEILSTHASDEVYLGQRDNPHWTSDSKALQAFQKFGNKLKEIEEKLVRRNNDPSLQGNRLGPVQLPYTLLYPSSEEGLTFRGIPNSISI
Description: In this test the capacity of a material to inhibit the oxidation of linoleic acid by lipoxidase (EC1.13.1.13) to form a hydroperoxide is measured.
Aqueous 0.2M sodium borate solution (pH 9.0) is used as buffer solution.
A control substrate solution is prepared by dissolving linoleic acid (2.0 ml) in absolute ethanol (60 ml), diluting with distilled water to 100 ml and then adding borate buffer (100 ml) and absolute ethanol (300 ml).
A test substrate solution is prepared in the same way as the control substrate solution except that for the absolute ethanol (300 ml) is substituted the same volume of a 0.5% by weight solution in ethanol of the material to be tested.
A solution of the enzyme lipoxidase in the borate buffer and having an activity within the range of from 15,000 to 40,000 units per ml is prepared.
The activity of the lipoxidase in catalysing the oxidation of linoleic acid is first assayed spectrophotometrically using the control. An automatic continuously recording spectrophotometer is used and the increase in extinction at 234 nm (the peak of hydroperoxide) is measured to follow the course of oxidation, the enzyme concentration used being such that it gives an increase in optical density (ΔOD) at 234 nm within the range of from 0.6 to 1.0 units per minute. The following ingredients are placed in two 3 ml cuvettes:
The lipoxidase solution is added to the control cuvette last and the reaction immediately followed spectrophotometrically for about 3 minutes, with recording of the increase in optical density at 234 nm as a curve on a graph.
The capacity of a material to inhibit the oxidation is then measured using a test sample containing enzyme, substrate and a deodorant material. The following ingredients are placed in two 3 ml cuvettes.
The lipoxidase solution is added to the test sample cuvette last and the course of the reaction immediately followed as before.
The lipoxidase-inhibiting capacity of the material is then calculated from the formula 100 (S1-S2)/S1, where S1 is the slope of the curve obtained with the control and S2 is the slope of the curve obtained with the test sample, and thus expressed as % inhibitor. A material that gives at least 50% inhibition in the test is hereafter referred to as having a lipoxidase-inhibiting capacity of at least 50%.

Row | RVR value [1] | LIC value (lipoxidase (EC1.13.1.13)) | SMILES
1 | 1.58 | 0% | O=C(OCc1ccccc1)c1ccccc1O [Benzyl salicylate]
2 | 1.22 | 58% | O=c1ccc2ccccc2o1 [Coumarin]
3 | 1.21 | 100% | COC(=O)c1c(C)cc(O)c(C)c1O [LRG 201]
4 | 1.24 | 22% | OCCc1ccccc1 [Phenylethyl alcohol]
5 | 0.98 | 54% | CC(=O)OC1CCC(C(C)(C)C)CC1 (centres unmarked) [p-t-Butyl cyclohexyl acetate]
6 |  | 74% | CC(C=O)Cc1ccc(C(C)(C)C)cc1 (stereo not drawn) [p-t-Butyl-α-methyl hydrocinnamic aldehyde]

Row | SMILES | RVR value [1] | LIC value (lipoxidase (EC1.13.1.13))
7 | CCOc1cc(C=O)ccc1O [Ethyl vanillin] | 1.43 | 100%
8 | COc1ccc2ccccc2c1 [β-Naphthyl methyl ether] |  | 100%
